Laboratory results from patent US20090270407A1, “FUNGICIDAL ISOXAZOLIDINES” (E. I. DU PONT DE NEMOURS AND COMPANY, priority 2008, published 2009).
Like-named read-outs stand apart in the source and are kept apart here. Marks after values point to notes of the source that are not given here.

What was measured:
Conditions in all cases: 100 = 100 % disease control, 0 = no disease control relative to controls
[1] = test system: Erysiphe graminis f. sp. tritici; test: Test A: wheat powdery mildew, preventive spray on wheat seedlings, visual disease rating
Botrytis cinerea = test: Test E: tomato Botrytis, preventive spray on tomato seedlings, visual disease rating
Text: (§1) General protocol for preparing test suspensions for Tests A-I: The test compounds were first dissolved in acetone in an amount equal to 3% of the final volume and then suspended at the desired concentration (in ppm) in acetone and purified water (50/50 mix) containing 250 ppm of the surfactant Trem® 014 (polyhydric alcohol esters). The resulting test suspensions were then used in Tests A-I. Spraying a 200 ppm test suspension to the point of run-off on the test plants was the equivalent of a rate of 500 g/ha.
The test suspension was sprayed to the point of run-off on tomato seedlings. The following day the seedlings were inoculated with a spore suspension of Botrytis cinerea (the causal agent of tomato Botrytis) and incubated in saturated atmosphere at 20° C. for 48 h, and then moved to a growth chamber at 24° C. for 3 additional days, after which time visual disease ratings were made.
(§2) All results are for 200 ppm except where followed by “*” which indicates 40 ppm.

Phytophthora infestans = assay type: in vivo
[2] = test system: Puccinia recondita f. sp. tritici; test: Test B: wheat leaf rust, preventive spray on wheat seedlings, visual disease rating
Text: as §1
The test suspension was sprayed to the point of run-off on wheat seedlings. The following day the seedlings were inoculated with a spore suspension of Puccinia recondita f. sp. tritici (the causal agent of wheat leaf rust) and incubated in a saturated atmosphere at 20° C. for 24 h, and then moved to a growth chamber at 20° C. for 7 days, after which time visual disease ratings were made.
as §2

Rhizoctonia oryzae = test: Test G: turf brown patch, preventive spray on creeping bent grass seedlings, visual disease rating
Experimental: The test suspension was sprayed to the point of run-off on creeping bent grass seedlings. The following day the seedlings were inoculated with a spore suspension of Rhizoctonia oryzae (the causal agent of turf brown patch) and incubated in a saturated atmosphere at 27° C. for 48 h, and then moved to a growth chamber at 27° C. for 3 days, after which time visual disease ratings were made.
(§3) A dash (−) indicates no test results. All results are for 200 ppm except where followed by “*” which indicates 40 ppm.

Alternaria solani = test: Test F: tomato early blight, preventive spray on tomato seedlings, visual disease rating
Text: (§4) General protocol for preparing test suspensions for Tests A-I: The test compounds were first dissolved in acetone in an amount equal to 3% of the final volume and then suspended at the desired concentration (in ppm) in acetone and purified water (50/50 mix) containing 250 ppm of the surfactant Trem® 014 (polyhydric alcohol esters). The resulting test suspensions were then used in Tests A-I. Spraying a 200 ppm test suspension to the point of run-off on the test plants was the equivalent of a rate of 500 g/ha. (An asterisk “*” next to the rating value indicates a 40 ppm test suspension.)
The test suspension was sprayed to the point of run-off on tomato seedlings. The following day the seedlings were inoculated with a spore suspension of Alternaria solani (the causal agent of tomato early blight) and incubated in a saturated atmosphere at 27° C. for 48 h, and then moved to a growth chamber at 20° C. for 5 days, after which time visual disease ratings were made.
as §3

Plasmopara viticola = test: Test I: grape downy mildew, spray on grape seedlings after inoculation, visual disease rating
Text: as §4
Grape seedlings were inoculated with a spore suspension of Plasmopara viticola (the causal agent of grape downy mildew) and incubated in a saturated atmosphere at 20° C. for 24 h. After a short drying period, the test suspension was sprayed to the point of run-off on the grape seedlings and then moved to a growth chamber at 20° C. for 6 days, after which time the test units were placed back into a saturated atmosphere at 20° C. for 24 h. Upon removal, visual disease ratings were made.
as §2

Septoria nodorum = test: Test C: wheat glume blotch, preventive spray on wheat seedlings, visual disease rating
Septoria tritici = test: Test D: wheat leaf blotch, preventive spray on wheat seedlings, visual disease rating; assay type: in vivo
Text: A dash (−) indicates no test results.

Compound	Test A disease control rating ([1]; 200 ppm)	Test E disease control rating (Botrytis cinerea; 200 ppm)	Test H disease control rating (Phytophthora infestans; 200 ppm)	Test B disease control rating ([2]; 200 ppm)	Test G disease control rating (Rhizoctonia oryzae; 200 ppm)	Test F disease control rating (Alternaria solani; 200 ppm)	Test I disease control rating (Plasmopara viticola; 200 ppm)	Test C disease control rating (Septoria nodorum; 200 ppm)	Test F disease control rating (Alternaria solani; 40 ppm (marked *))	Test A disease control rating ([1]; 40 ppm (marked *))	Test E disease control rating (Botrytis cinerea; 40 ppm (marked *))	Test I disease control rating (Plasmopara viticola; 40 ppm (marked *))	Test H disease control rating (Phytophthora infestans; 40 ppm (marked *))	Test D disease control rating (Septoria tritici; 40 ppm (marked *))	Test B disease control rating ([2]; 40 ppm (marked *))	Test C disease control rating (Septoria nodorum; 40 ppm (marked *))	Test D disease control rating (Septoria tritici; 200 ppm)	Test G disease control rating (Rhizoctonia oryzae; 40 ppm (marked *))
CN1OC(C)(c2cccnc2)CC1c1ccc(Br)cc1 (racemic) [Compound 3]	93%	79%	0%	0%														
CN1OC(C)(c2cccnc2)CC1c1ccc(Br)cc1 (racemic) [Compound 4]	90%	80%	0%	32%	0%	0%	0%	100%										
CN1OC(C)(c2cccnc2)CC1c1ccc(C(C)(C)C)cc1 (racemic) [Compound 7]	99%	99%	0%	34%	0%	40%	0%	69%										
CN1OC(C)(c2cccnc2)CC1c1ccc(C(C)(C)C)cc1 (racemic) [Compound 8]	99%	56%	0%	69%	0%	0%	0%	40%										
CN1OC(C)(c2cccnc2)CC1c1ccc(Oc2ccccc2)cc1 (racemic) [Compound 9]	99%	99%	17%	82%	0%	78%	0%	95%										
CN1OC(C)(c2cccnc2)CC1c1ccc(Oc2ccccc2)cc1 (racemic) [Compound 10]	93%	98%	0%	82%	0%	0%	0%	98%										
CN1OC(C)(c2cccnc2)CC1c1ccc(-c2ccccc2)cc1 (racemic) [Compound 11]	99%	99%	0%	91%	0%	26%	0%	97%										
CN1OC(C)(c2cccnc2)CC1c1ccc(-c2ccccc2)cc1 (racemic) [Compound 12]	99%	29%	0%	74%	0%	0%	0%	82%										
Cc1ccc(-c2ccc(C3CC(C)(c4cccnc4)ON3C)cc2)cc1 (racemic) [Compound 14]									0* %	91* %	0* %	0* %	0* %	0* %	0* %	0* %		
CN1OC(C)(c2cccnc2)CC1c1ccc(I)cc1 (racemic) [Compound 15]	99%	98%	0%	0%		100%	0%	99%									98%	
CN1OC(C)(c2cccnc2)CC1c1ccc(I)cc1 (racemic) [Compound 16]	99%	56%	0%	0%		0%	0%	95%									96%	
CN1OC(C)(c2cccnc2)CC1c1ccc(-c2ccc(OC(F)(F)F)cc2)cc1 (racemic) [Compound 17]									15* %	100* %	94* %	0* %	0* %	30* %	0* %	0* %		
CN1OC(C)(c2cccnc2)CC1c1ccc(-c2ccc(OC(F)(F)F)cc2)cc1 (racemic) [Compound 18]									7* %	0* %	0* %	0* %	0* %	58* %	0* %	0* %		0* %
CN1OC(C)(c2cccnc2)CC1c1ccc(Oc2ccc(F)cc2)cc1 (racemic) [Compound 19]	98%	98%	0%	91%	0%	7%	0%	99%									98%	
CN1OC(C)(c2cccnc2)CC1c1ccc(-n2cccn2)cc1 (racemic) [Compound 33]									58* %	99* %	39* %	0* %	0* %	80* %	0* %	99* %		
CN1O[C@](C)(c2cccnc2)C[C@@H]1c1ccc(Cl)cc1 (relative stereo) [Compound 1, rel-3-[(3R,5S)-3-(4-chlorophenyl)-2,5-dimethyl-5-isoxazolidinyl]pyridine]	97%	83%	0%	0%	0%	0%	0%	100%										
CN1O[C@@](C)(c2cccnc2)C[C@@H]1c1ccc(Cl)cc1 (relative stereo) [Compound 2, rel-3-[(3R,5R)-3-(4-chlorophenyl)-2,5-dimethyl-5-isoxazolidinyl]pyridine]	72%	0%	0%	0%	0%	0%	17%	99%										
Cc1ccc(-c2ccc([C@H]3C[C@@](C)(c4cccnc4)ON3C)cc2)cc1 (relative stereo) [Compound 13, rel-3-[(3R,5S)-2,5-dimethyl-3-(4′-methyl[1,1′-biphenyl]-4-yl)-5-isoxazolidinyl]pyridine]									0* %	99* %	99* %	0* %	0* %	92* %	0* %	0* %		
CN1O[C@](C)(c2cccnc2)C[C@@H]1c1ccc(-n2ccc(C(F)(F)F)n2)cc1 (relative stereo) [Compound 35, rel-3-[(3R,5S)-2,5-dimethyl-3-[4-[3-(trifluoromethyl)-1H-pyrazol-1-yl]phenyl]-5-isoxazolidinyl]pyridine]									98* %	100* %	99* %	0* %	0* %	99* %	100* %	100* %		
CN1OC(C)(c2cccnc2)CC1c1ccc(Cl)c(Cl)c1 (stereo not drawn) [Compound 5]	98%	91%	0%	0%	0%	51%	0%	0%										
CN1OC(C)(c2cccnc2)CC1c1ccc(Cl)c(Cl)c1 (stereo not drawn) [Compound 6]	99%	0%	0%	0%	0%	0%	17%	0%										
CN1OC(C)(c2cccnc2)CC1c1ccc(-n2cccn2)cc1 (stereo not drawn) [Compound 34]									6* %	98* %	56* %	0* %	0* %	88* %	0* %	99* %		
